# Source: patent publication US5314877A, “Water-soluble pentacyclic triterpene composition and method for producing the same” (Hokkaido Sugar Co., Ltd., priority 1990, dated 1994)
# “Also recorded” adds a separate entry of the source.
# Assay: Pharmacological function of triterpenes (earlier experiments and reports)
# Details: inventors' experiments, no data given
smiles,measurement,value
"CC1(C)CC[C@]2(C(=O)O)CC[C@]3(C)C(=CC[C@@H]4[C@@]5(C)CC[C@H](O)C(C)(C)[C@@H]5CC[C@]43C)[C@@H]2C1 [oleanolic acid, Oleanolic acid]",Pharmacological function of oleanolic acid from sugar beet,antibiosis to a tumor and hepatitis; also recorded: cariostatic (insoluble glucanynthesis inhibition)
